The numbers were not newly measured in publication PMC9540525 (Cancer, 2022), which cites them from elsewhere.

The conditions of series [1]: phase 1 dose-escalation study in R/R SCLC; cited from earlier work.
The conditions of series [2]: phase 1 dose-escalation study in R/R SCLC; cited from earlier work. This is another data set of the same source.
The conditions of series [3]: first-in-human study; cited from earlier work.

With `O=C(O)c1ccc(CN2CCC(CN[C@@H]3C[C@H]3c3ccccc3)CC2)cc1` [GSK2879552], the pharmacokinetic properties entry in series [1] was “favorable pharmacokinetic properties were demonstrated”. Besides, the “rate of AEs” value in series [2] is recorded as “the rate of AEs, especially serious AEs, was high”.

With `N[C@H]1CC[C@H](N[C@@H]2C[C@H]2c2ccccc2)CC1` [iadademstat], the toxicities result in series [3] is “caused toxicities, including thrombocytopenia, anemia, and febrile neutropenia, as well as deaths possibly related to iadademstat”.
